Read-outs that look alike come from different tables or passages of the source. One block for each compound: values may come before it.
Experiments:
wild-type HSV-1 strain F = assay: Anti-HSV-1 plaque reduction assay (PRA) on supernatants of infected U2OS cells; format: cell-based; settings: for IC50: MOI 1, supernatants at 24 h.p.i., plaque reduction assay, read-out: IC50 (concentration able to perform 50% inhibition of HSV-1 production)
Method: (§1) Quindoline-derived compounds were first screened for their anti-herpetic activity. Increasing concentrations of compounds (from 25 to 400 nM) were added to U2OS cells infected with wild-type HSV-1 strain F at a MOI of 1. Supernatants were collected at 24 hours post infection (h.p.i.) and the reduction of viral particles production was determined by plaque reduction assay (PRA) (see, Artusi S., et al., Antiviral Res. 2015; 118:123-31; Callegaro S., et al., Sci. Rep. 2017; 7: 2341). Antiviral activities were determined as the concentration of compounds able to perform 50% inhibition of HSV-1 production (IC50). Cytotoxicity effects were evaluated in parallel by MTT assay and reported as the concentration of compounds able to kill 50% of the cells (CC50). The selectivity index (SI) was calculated as the ratio of CC50 to IC50.

[1] = Cytotoxicity by MTT assay; format: cell-based, Human; settings: human, U2OS cells (osteosarcoma cell line), read-out: CC50 (concentration able to kill 50% of the cells)
Method: as §1, with “Increasing concentrations of compounds (from 25 to 400 nM) were added to U2OS cells infected with wild-type HSV-1 strain F at a MOI of 1.” left out

[2] = system: U2OS (Human osteosarcoma cell line); assay: Cytotoxicity by MTT assay; format: cell-based; settings: U2OS cells, read-out: CC50 (concentration able to kill 50% of the cells)
Method: as §1, with “Increasing concentrations of compounds (from 25 to 400 nM) were added to U2OS cells infected with wild-type HSV-1 strain F at a MOI of 1.” left out

[3] = system: un2 G-quadruplex-folded oligonucleotide; assay: Competition ESI-MS binding, un2; parameters: species or system HSV-1; settings: competing G4s un2/hTel, oligonucleotides 4 μM, DNA:compound 1:1.5, overnight 4° C.
Method: (§2) Competition electrospray ionization mass spectrometry (ESI-MS) experiments were performed in order to check the binding selectivity of GSA-0932 toward different G-quadruplex forming sequences (see, Callegaro S., et al., Sci. Rep. 2017; 7: 2341; Yuan G., et al., Mass Spectrom. Rev. 2011, 30, 1121-114210.1002/mas.20315). The viral un3, un2 and gp054a G4s were analyzed against the selected competitor hTel, the G-quadruplex-forming sequence of the human telomeric repeat, the most abundant cellular G-quadruplex. The oligonucleotides were diluted to final concentration of 4 μM and incubated with the compound at ratio DNA:compound 1:1.5 overnight at 4° C. Samples were analyzed by a Xevo G2-XS QT of mass spectrometer (Waters, Manchester, UK). Binding affinities were calculated for each experiment using the peak intensity for each species measured by MassLynx V4.1.

[4] = system: gp054a G-quadruplex-folded oligonucleotide; assay: Competition ESI-MS binding, gp054a; parameters: species or system HSV-1; settings: competing G4s gp054a/hTel, oligonucleotides 4 μM, DNA:compound 1:1.5, overnight 4° C.
Method: as §2

[5] = system: HSV-1 un2 G-quadruplex folding sequence; assay: Circular dichroism (CD) melting of G-quadruplex, un2; format: binding; settings: un2 4 μM + 16 μM GSA-0932, K+ 2.5 mM
Method: (§3) Circular dichroism (CD) was conducted to evaluate the binding and stabilizing activity of GSA-0932 to HSV-1 G-quadruplex structures (G4s). Three sequences were considered: two sequences forming a four-stacked-G-quartet structure (un2 and gp054a) and one forming a three-G-quartet G4 (un3) (see, Artusi S., et al., Antiviral Res. 2015; 118:123-31). HSV-1 G4s were analyzed at a final concentration of 4 μM in the presence of the physiological K^+ concentration (100 mM) or in the presence of lower K^+ concentration (2.5 mM) in order to better appreciate the effect of the compound in the case of extremely stable G4 structures (e.g. un2 sequence). Oligonucleotides were also analyzed in the absence or presence of 4-folds excess of GSA-0932.

[6] = system: un2, un3 and gp054a G-quadruplex forming templates; assay: Taq polymerase stop assay, G-quadruplex templates; format: biochemical, HSV-1; settings: 2-8 μM compound; un3 at 50 mM K+, un2 and gp054a at 0.5 mM K+
Method: (§4) FIG. 3: Taq polymerase stop assay. A) Image of a typical Taq polymerase stop assay. The un2, un3, gp054a template were amplified by Taq polymerase in the absence (lanes 5-9-13) and in the presence of K^+, combined with increasing amounts (2-8 μM) of GSA-0932 (lanes 7-8, 11-12, 15-16) or same amount of DMSO as that in the ligand (lanes 6-10-14). Un3 was analyzed at 50 mM of K^+, while the other sequences were investigated at 0.5 mM of K^+. A template (non-G4 ctrl) unable to fold into G4 was also used as control (lanes 1-4). P stands for unreacted labeled primer, FL stands for full length product. G4-specific Taq polymerase stop sites are highlighted by vertical bars. Quantification of stop bands corresponding to G4 and of the full length amplification product (FL) is shown.
To confirm the increased stability of the viral G-quadruplexes in the presence of GSA-0932, a Taq polymerase stop assay was next set up (FIG. 3). Extended un2, un3 and gp054a forming sequences were used, containing additional flanking bases at the 3′-end: a primer annealing sequence and a 5-T linker region to separate the annealing sequence from the first G of the G-tract.
(§5) Un3 was analyzed at 50 mM of K^+, while the FIG. 3 other sequences were investigated at 0.5 mM of K^+ due to their higher stability.

HSV-1 = assay: Time of addition (TOA) assay in HSV-1-infected U2OS cells; format: cell-based; settings: non-toxic concentration, added every 2 hours up to 10 h.p.i., supernatants at 30 h.p.i. titrated by PRA
Method: To assess the main and temporally last viral step targeted by the most promising compound, GSA-0932, a time of addition (TOA) assay was performed (see, FIG. 2) (see, Artusi S., et al., Antiviral Res. 2015; 118:123-31; Callegaro S., et al., Sci. Rep. 2017; 7: 2341; Daelemans D., et al., Nat. Protoc. 2011; 6(6):925-33). This experiment permits determination of how long the addition of a compound can be postponed before it loses its antiviral activity. Since the HSV-1 replication cycle proceeds in a well-established chronological order, it is possible to investigate the last viral process targeted by a compound comparing its action to that of a reference drug in the time frame of replication events. The well characterized anti-HSV drug Acyclovir (ACV) was considered as reference (see, Artusi S., et al., Antiviral Res. 2015; 118:123-31; Callegaro S., et al., Sci. Rep. 2017; 7: 2341). HSV-1-infected U2OS cells were treated with a non-toxic concentration of GSA-0932 at different times post-infection (corresponding to different viral cycle steps): every 2 hours up to 10 h.p.i. Supernatants were collected at 30 h.p.i. and then titrated by PRA.

[7] = system: HSV-1 gp054a G-quadruplex folding sequence; assay: Circular dichroism (CD) melting of G-quadruplex, gp054a; format: binding; settings: for Tm, first value: first of two printed Tm; for Tm, second value: second of two printed Tm
Method: as §3

[8] = system: hTel, the G-quadruplex-forming sequence of the human telomeric repeat; assay: Competition ESI-MS binding, hTel; settings: oligonucleotides 4 μM, DNA:compound 1:1.5, overnight 4° C.
Method: as §2

[9] = system: HSV-1 un3 G-quadruplex folding sequence; assay: Circular dichroism (CD) melting of G-quadruplex, un3; format: binding
Method: as §3

[10] = system: un3 G-quadruplex-folded oligonucleotide; assay: Competition ESI-MS binding, un3; parameters: species or system HSV-1; settings: competing G4s un3/hTel, oligonucleotides 4 μM, DNA:compound 1:1.5, overnight 4° C.
Method: as §2

[11] = system: control DNA template unable to fold into G-quadruplex; assay: Taq polymerase stop assay, non-G4 control template; format: biochemical; settings: non-G4 ctrl template
Method: as §4, §5

[12] = Human alphaherpesvirus 1, HSV-1 strain F
[13] = gp054a 4 μM + 16 μM GSA-0932, K+ 2.5 mM
[14] = gp054a 4 μM + 16 μM GSA-0932, K+ 100 mM
[15] = un3 4 μM + 16 μM GSA-0932, K+ 2.5 mM
[16] = un3 4 μM + 16 μM GSA-0932, K+ 100 mM

Compound: c1ccc2c3c4c(nc2c1)c1ccccc1n4CCCN3CCCN1CCOCC1 [GSA-0825]
SI (selectivity index, ratio of CC50 to IC50) (wild-type HSV-1 strain F): 91.64
IC50 (wild-type HSV-1 strain F; [12]): 357 nM
CC50 [1]: 32.7 µM

Compound: OC1CCN(CCN2CCCn3c4ccccc4c4nc5ccccc5c2c43)CC1 [GSA-0932]
Relative binding affinity, un2 [3]: 38.9 ± 1.7
Relative binding affinity, gp054a [4]: 57.3 ± 0.4
Tm [5]: >90 °C
ΔTm [5]: >7.5 °C
intensity of the G4 stop bands [6]: increased in a concentration dependent manner
time of addition up to which infection was kept controlled (HSV-1): up to 6 h.p.i.
ΔTm [7, 13]: 15.6 °C
Tm, first value [7, 13]: 74.5 °C
Tm, second value [7, 13]: > 90 °C
Tm, first value [7, 14]: 74.7 °C
ΔTm, first value ([7]; gp054a 4 μM + 16 μM GSA-0932, K+ 100 mM, first of two printed ΔTm): 17.4 °C
Tm, second value [7, 14]: > 90 °C
ΔTm, second value ([7]; gp054a 4 μM + 16 μM GSA-0932, K+ 100 mM, second of two printed ΔTm): > 7.5 °C
Relative binding affinity, Cell G4 (hTel) ([8]; competing G4s un2/hTel): 11.1 ± 0.4
Relative binding affinity, Cell G4 (hTel) ([8]; competing G4s un3/hTel): 13.8 ± 0.2
Tm [9, 15]: 56.4 ± 1.2 °C
ΔTm [9, 15]: 18.8 ± 0.8 °C
Tm [9, 16]: 66.4 °C
ΔTm [9, 16]: 1.4 °C
Relative binding affinity, un3 [10]: 50.3 ± 1.2
effect on control DNA template [11]: no effect
SI (selectivity index, ratio of CC50 to IC50) (wild-type HSV-1 strain F): 112.9
IC50 (wild-type HSV-1 strain F; [12]): 132 nM
CC50 [1]: 14.9 µM

Compound: CN(C)CCN1CCCn2c3ccccc3c3nc4ccccc4c1c32 [GSA-1502]
SI (selectivity index, ratio of CC50 to IC50) (wild-type HSV-1 strain F): 68.70
IC50 (wild-type HSV-1 strain F; [12]): 188 nM
CC50 [1]: 12.9 µM

Compound: c1ccc2c3c4c(nc2c1)c1ccccc1n4CCCN3CCCN1CCCCC1 [GSA-1202]
SI (selectivity index, ratio of CC50 to IC50) (wild-type HSV-1 strain F): 21.31
IC50 (wild-type HSV-1 strain F; [12]): 202 nM
CC50 [1]: 4.32 µM

Compound: OC1CCC(CCN2CCCn3c4ccccc4c4nc5ccccc5c2c43)CC1 (centres unmarked) [GSA-1512]
SI (selectivity index, ratio of CC50 to IC50) (wild-type HSV-1 strain F): 70.78
IC50 (wild-type HSV-1 strain F; [12]): 256 nM
CC50 [1]: 18.1 µM

More lines, main results first:

IC50 (wild-type HSV-1 strain F; [12]): 225 nM
Compound: CN(C)CCCN1CCCn2c3ccccc3c3nc4ccccc4c1c32 [GSA-1504]
SI (selectivity index, ratio of CC50 to IC50) (wild-type HSV-1 strain F): 20.42
CC50 [1]: 4.6 µM

IC50 (wild-type HSV-1 strain F; HSV-1 strain F): 311 nM
Compound: Cc1c2ccncc2c(C)c2c1[nH]c1ccc(OCCN(C)C)cc12 [GQC-05, reference compound]
CC50 [2]: 1650 nM

IC50 (wild-type HSV-1 strain F; [12]): > 400 nM
Compound: Cl.c1ccc2c3c4c(nc2c1)c1ccccc1n4CCCN3CCCN1CCCCCC1 [GSA-0920]
SI (selectivity index, ratio of CC50 to IC50) (wild-type HSV-1 strain F): <9.05
CC50 [1]: 3.62 µM

IC50 (wild-type HSV-1 strain F; [12]): > 200 nM
Compound: CN1CCN(CCCN2CCCn3c4ccccc4c4nc5ccccc5c2c43)CC1 [GSA-0903]
SI (selectivity index, ratio of CC50 to IC50) (wild-type HSV-1 strain F): <31.15
CC50 [1]: 6.23 µM

— patent publication US12559499B2, “Uses of compounds having anti-HSV-1 activity” (Arizona Board of Regents on Behalf of the University of …, priority 2019, dated 2026)
